“And” between values parts separate entries of the source, which are not always exact repeats. Equal entries are not always repeated.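 Test compounds were applied to cells in 96-well plates for 48 hours at 5 doses. GI50 is the concentration that inhibits growth by half. TGI denotes the concentration required for complete inhibition of growth.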
Experiments:
Experiment in all cases: NCI-60 cell line screen, 48 h
SK-MEL-5 melanoma = test system: SK-MEL-5 melanoma
ACHN renal = test system: ACHN renal
CCRF-CEM leukemia = test system: CCRF-CEM leukemia
TK-10 renal = test system: TK-10 renal
786-0 renal = test system: 786-0 renal
SF-295 CNS = test system: SF-295 CNS
COLO 205 colon = test system: COLO 205 colon
SR leukemia = test system: SR leukemia
HL-60(TB) leukemia = test system: HL-60(TB) leukemia
NCI-H460 lung = test system: NCI-H460 lung
DMS 114 small cell lung = test system: DMS 114 small cell lung
RPMI-8226 leukemia = test system: RPMI-8226 leukemia
HCT-116 colon = test system: HCT-116 colon
A549 NSCLC = test system: A549 NSCLC
IGROV1 ovarian = test system: IGROV1 ovarian
K-562 leukemia = test system: K-562 leukemia
DLD-1 colon = test system: DLD-1 colon
SNB-75 CNS = test system: SNB-75 CNS
SK-MEL-28 melanoma = test system: SK-MEL-28 melanoma
UO-31 renal = test system: UO-31 renal
SF-268 CNS = test system: SF-268 CNS
HCC-2998 colon = test system: HCC-2998 colon
UACC-62 melanoma = test system: UACC-62 melanoma
OVCAR-4 ovarian = test system: OVCAR-4 ovarian
OVCAR-5 ovarian = test system: OVCAR-5 ovarian
HOP-92 NSCLC = test system: HOP-92 NSCLC
RXF-631 renal = test system: RXF-631 renal
SNB-19 CNS = test system: SNB-19 CNS
OVCAR-3 ovarian = test system: OVCAR-3 ovarian
SN12C renal = test system: SN12C renal
MALME-3M melanoma = test system: MALME-3M melanoma
A498 renal = test system: A498 renal
LOX IMVI melanoma = test system: LOX IMVI melanoma
M19-MEL melanoma = test system: M19-MEL melanoma
SK-OV-3 ovarian = test system: SK-OV-3 ovarian
HT29 colon = test system: HT29 colon
SNB-78 CNS = test system: SNB-78 CNS
XF 498 CNS = test system: XF 498 CNS
EKVX NSCLC = test system: EKVX NSCLC
DMS 273 small cell lung = test system: DMS 273 small cell lung
SW-620 colon = test system: SW-620 colon

COc1cc2c(c(OC)c1OC)-c1ccc(SC)c(=O)cc1[C@@H](NC(=O)c1ccc([N+](=O)[O-])cc1)CC2
TGI (SK-MEL-5 melanoma): 3.79 µM and 1.59 µM | TGI (ACHN renal): 25 µM and > 100 µM | TGI (CCRF-CEM leukemia): 25 µM | GI50 (TK-10 renal): 0.0344 µM | TGI (TK-10 renal): 25 µM and > 100 µM | TGI (786-0 renal): 15.6 µM and 30.7 µM | TGI (SF-295 CNS): 0.00721 µM | TGI (COLO 205 colon): 25 µM | TGI (SR leukemia): 25 µM and > 100 µM | TGI (HL-60(TB) leukemia): 0.302 µM | TGI (NCI-H460 lung): 0.0108 µM | TGI (DMS 114 small cell lung): 0.89 µM | TGI (RPMI-8226 leukemia): 25 µM and > 100 µM | TGI (HCT-116 colon): 7.28 µM and 11.7 µM | TGI (A549 NSCLC): 25 µM and > 100 µM | TGI (IGROV1 ovarian): 25 µM and > 100 µM | TGI (K-562 leukemia): 25 µM and > 100 µM | TGI (DLD-1 colon): 25 µM and > 100 µM | GI50 (SNB-75 CNS): < 0.0025 µM | TGI (SK-MEL-28 melanoma): > 100 µM | TGI (UO-31 renal): 25 µM and 59.4 µM | TGI (SF-268 CNS): 25 µM and > 100 µM | TGI (HCC-2998 colon): 0.0151 µM | TGI (UACC-62 melanoma): 25 µM and > 100 µM | TGI (OVCAR-4 ovarian): 25 µM and > 100 µM | TGI (OVCAR-5 ovarian): 0.171 µM | TGI (HOP-92 NSCLC): 23.2 µM | TGI (RXF-631 renal): > 100 µM | TGI (SNB-19 CNS): 23.2 µM | TGI (OVCAR-3 ovarian): 0.00595 µM | TGI (SN12C renal): 25 µM and > 100 µM | TGI (MALME-3M melanoma): 25 µM and > 100 µM | TGI (A498 renal): 3.57 µM | TGI (LOX IMVI melanoma): 25 µM and > 100 µM | TGI (M19-MEL melanoma): 25 µM and > 100 µM | TGI (SK-OV-3 ovarian): 0.0575 µM | GI50 (HT29 colon): < 0.0025 µM | TGI (SNB-78 CNS): 25 µM | TGI (XF 498 CNS): 25 µM | TGI (EKVX NSCLC): 25 µM | TGI (DMS 273 small cell lung): 25 µM and > 100 µM | TGI (SW-620 colon): 25 µM and > 100 µM

From PubChem BioAssay (NCI)
